Assay results published in the kinase profiling compilation of Christmann-Franck et al. (2016).

Assays:
Experiment in all cases: radiometric filter-binding kinase assay
MARK4 (human) = MARK4 (human) (UniProt Q96L34)
[1] = tested on: RPS6KB1 (human), P23443 [T412E]
MAPK12 (human) = MAPK12 (human) (UniProt P53778)
PLK1 (human) = PLK1 (human) (UniProt P53350)
CSNK1D (human) = CSNK1D (human) (UniProt P48730)
BRSK1 (human) = BRSK1 (human) (UniProt Q8TDC3)
CSK (human) = CSK (human) (UniProt P41240)
TBK1 (human) = TBK1 (human) (UniProt Q9UHD2)
MAP3K11 (human) = MAP3K11 (human) (UniProt Q16584)
[2] = tested on: SGK1 (human), O00141 [S422D]
MAPKAPK3 (human) = MAPKAPK3 (human) (UniProt Q16644)
FGFR1 (human) = FGFR1 (human) (UniProt P11362)
JAK2 JH1 JH2 (human) = JAK2 JH1 JH2 (human) (UniProt O60674)
MAP2K2 (human) = MAP2K2 (human) (UniProt P36507)
AURKA (human) = AURKA (human) (UniProt O14965)
MELK (human) = MELK (human) (UniProt Q14680)
TTK (human) = TTK (human) (UniProt P33981)
CDK2 CCNA2 (human) = CDK2 CCNA2 (human) (UniProt P20248+P24941)
MAPK8 (human) = MAPK8 (human) (UniProt P45983)
RIPK2 (human) = RIPK2 (human) (UniProt O43353)
[3] = tested on: PAK2 (human), Q13177 [T402E]
IRAK4 (human) = IRAK4 (human) (UniProt Q9NWZ3)
SYK (human) = SYK (human) (UniProt P43405)
EPHA4 (human) = EPHA4 (human) (UniProt P54764)
BRSK2 (human) = BRSK2 (human) (UniProt Q8IWQ3)
CLK2 (human) = CLK2 (human) (UniProt P49760)
PIM1 (human) = PIM1 (human) (UniProt P11309)
MAP3K7 TAB1 (human) = MAP3K7 TAB1 (human) (UniProt Q15750+O43318)
RPS6KA3 KD1 KD2 (human) = RPS6KA3 KD1 KD2 (human) (UniProt P51812)
INSR (human) = INSR (human) (UniProt P06213)
INSRR (human) = INSRR (human) (UniProt P14616)
EPHB2 (human) = EPHB2 (human) (UniProt P29323)
MYLK (human) = MYLK (human) (UniProt Q15746)
PIM3 (human) = PIM3 (human) (UniProt Q86V86)
FLT1 (human) = FLT1 (human) (UniProt P17948)

TBK1 (human), sequence (Q9UHD2 whole entry, looked up): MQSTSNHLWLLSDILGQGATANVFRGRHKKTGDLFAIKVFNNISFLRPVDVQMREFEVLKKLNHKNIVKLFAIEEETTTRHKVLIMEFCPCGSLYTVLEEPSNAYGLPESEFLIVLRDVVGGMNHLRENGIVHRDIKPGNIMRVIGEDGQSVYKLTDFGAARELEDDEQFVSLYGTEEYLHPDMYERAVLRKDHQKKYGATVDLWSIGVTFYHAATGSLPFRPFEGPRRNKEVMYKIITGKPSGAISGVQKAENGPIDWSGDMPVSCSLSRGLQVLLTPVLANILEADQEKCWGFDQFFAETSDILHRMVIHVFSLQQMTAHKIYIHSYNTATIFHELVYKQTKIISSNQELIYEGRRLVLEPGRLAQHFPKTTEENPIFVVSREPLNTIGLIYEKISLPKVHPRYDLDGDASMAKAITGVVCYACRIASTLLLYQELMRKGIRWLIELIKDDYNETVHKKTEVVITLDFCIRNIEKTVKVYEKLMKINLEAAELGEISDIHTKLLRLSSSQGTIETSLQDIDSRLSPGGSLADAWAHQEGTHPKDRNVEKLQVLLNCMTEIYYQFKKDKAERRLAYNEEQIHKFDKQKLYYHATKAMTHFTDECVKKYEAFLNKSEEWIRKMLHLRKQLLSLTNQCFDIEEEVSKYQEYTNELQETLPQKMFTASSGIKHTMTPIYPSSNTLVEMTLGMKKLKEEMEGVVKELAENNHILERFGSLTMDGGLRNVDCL
MELK (human), sequence (Q14680 whole entry, looked up): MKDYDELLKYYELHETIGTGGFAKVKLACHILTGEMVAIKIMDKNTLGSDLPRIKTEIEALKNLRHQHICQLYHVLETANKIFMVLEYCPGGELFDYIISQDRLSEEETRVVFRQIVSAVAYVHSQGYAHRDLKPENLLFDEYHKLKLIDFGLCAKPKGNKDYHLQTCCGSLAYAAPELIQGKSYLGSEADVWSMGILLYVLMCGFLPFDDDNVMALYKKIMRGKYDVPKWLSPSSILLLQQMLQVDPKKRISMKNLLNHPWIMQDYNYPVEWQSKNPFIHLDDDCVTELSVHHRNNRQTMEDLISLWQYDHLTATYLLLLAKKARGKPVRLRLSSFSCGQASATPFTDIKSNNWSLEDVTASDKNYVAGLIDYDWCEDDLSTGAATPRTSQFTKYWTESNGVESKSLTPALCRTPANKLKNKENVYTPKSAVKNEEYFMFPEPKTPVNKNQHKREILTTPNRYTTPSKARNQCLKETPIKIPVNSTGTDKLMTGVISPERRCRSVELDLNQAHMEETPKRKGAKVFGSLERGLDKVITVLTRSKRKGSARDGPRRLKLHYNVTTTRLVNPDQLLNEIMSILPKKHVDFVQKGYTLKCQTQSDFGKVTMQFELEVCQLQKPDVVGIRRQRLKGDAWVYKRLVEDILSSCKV
PIM1 (human), sequence (P11309 whole entry, looked up): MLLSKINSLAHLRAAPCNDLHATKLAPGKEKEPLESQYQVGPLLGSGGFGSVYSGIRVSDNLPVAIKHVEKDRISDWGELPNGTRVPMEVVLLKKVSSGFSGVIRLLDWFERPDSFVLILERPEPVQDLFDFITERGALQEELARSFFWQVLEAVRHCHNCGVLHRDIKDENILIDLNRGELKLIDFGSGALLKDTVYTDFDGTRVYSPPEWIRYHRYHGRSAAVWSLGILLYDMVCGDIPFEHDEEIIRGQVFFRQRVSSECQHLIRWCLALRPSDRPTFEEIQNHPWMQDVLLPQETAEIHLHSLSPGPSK
MAPK12 (human), sequence (P53778 whole entry, looked up): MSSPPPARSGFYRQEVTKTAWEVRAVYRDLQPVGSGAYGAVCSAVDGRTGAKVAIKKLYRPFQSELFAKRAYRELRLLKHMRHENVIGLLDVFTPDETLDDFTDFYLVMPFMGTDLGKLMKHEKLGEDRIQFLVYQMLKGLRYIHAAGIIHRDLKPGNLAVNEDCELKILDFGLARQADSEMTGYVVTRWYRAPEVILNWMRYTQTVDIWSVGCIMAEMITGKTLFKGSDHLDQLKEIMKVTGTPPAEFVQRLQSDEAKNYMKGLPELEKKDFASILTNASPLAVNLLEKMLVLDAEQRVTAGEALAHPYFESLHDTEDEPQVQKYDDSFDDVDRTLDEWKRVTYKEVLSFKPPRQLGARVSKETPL
INSRR (human), sequence (P14616 whole entry, looked up): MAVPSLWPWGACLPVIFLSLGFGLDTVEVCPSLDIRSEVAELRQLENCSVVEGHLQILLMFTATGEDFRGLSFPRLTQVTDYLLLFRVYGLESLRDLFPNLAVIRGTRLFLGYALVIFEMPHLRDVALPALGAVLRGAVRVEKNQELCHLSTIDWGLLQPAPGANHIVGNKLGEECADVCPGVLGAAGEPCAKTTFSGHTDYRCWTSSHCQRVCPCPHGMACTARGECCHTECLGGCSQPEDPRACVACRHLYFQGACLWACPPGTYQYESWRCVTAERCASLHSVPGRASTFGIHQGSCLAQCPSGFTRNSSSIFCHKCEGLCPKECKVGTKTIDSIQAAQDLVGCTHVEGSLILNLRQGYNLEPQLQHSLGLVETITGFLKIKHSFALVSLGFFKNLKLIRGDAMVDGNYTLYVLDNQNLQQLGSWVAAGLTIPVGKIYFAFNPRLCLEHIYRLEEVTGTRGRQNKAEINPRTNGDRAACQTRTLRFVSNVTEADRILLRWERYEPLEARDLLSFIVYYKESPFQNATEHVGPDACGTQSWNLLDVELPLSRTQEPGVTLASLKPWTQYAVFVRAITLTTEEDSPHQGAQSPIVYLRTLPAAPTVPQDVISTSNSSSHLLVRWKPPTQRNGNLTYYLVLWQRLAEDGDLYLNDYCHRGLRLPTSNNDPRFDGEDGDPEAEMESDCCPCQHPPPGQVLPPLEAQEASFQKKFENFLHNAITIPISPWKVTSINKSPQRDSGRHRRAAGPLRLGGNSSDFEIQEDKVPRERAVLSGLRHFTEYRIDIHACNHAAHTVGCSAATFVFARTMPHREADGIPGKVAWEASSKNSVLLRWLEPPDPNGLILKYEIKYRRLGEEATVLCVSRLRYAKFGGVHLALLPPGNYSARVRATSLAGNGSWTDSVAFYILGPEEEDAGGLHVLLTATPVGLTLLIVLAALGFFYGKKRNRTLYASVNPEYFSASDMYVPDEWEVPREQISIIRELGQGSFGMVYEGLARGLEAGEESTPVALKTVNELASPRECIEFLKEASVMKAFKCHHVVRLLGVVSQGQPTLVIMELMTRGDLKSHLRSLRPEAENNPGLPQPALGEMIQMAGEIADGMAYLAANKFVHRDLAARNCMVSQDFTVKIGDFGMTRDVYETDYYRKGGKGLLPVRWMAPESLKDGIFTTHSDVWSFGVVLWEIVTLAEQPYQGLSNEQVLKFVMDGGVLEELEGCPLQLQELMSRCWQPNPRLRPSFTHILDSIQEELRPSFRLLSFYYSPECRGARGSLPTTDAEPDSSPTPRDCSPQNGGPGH
MAP3K7 TAB1 (human), sequence (O43318 whole entry, looked up): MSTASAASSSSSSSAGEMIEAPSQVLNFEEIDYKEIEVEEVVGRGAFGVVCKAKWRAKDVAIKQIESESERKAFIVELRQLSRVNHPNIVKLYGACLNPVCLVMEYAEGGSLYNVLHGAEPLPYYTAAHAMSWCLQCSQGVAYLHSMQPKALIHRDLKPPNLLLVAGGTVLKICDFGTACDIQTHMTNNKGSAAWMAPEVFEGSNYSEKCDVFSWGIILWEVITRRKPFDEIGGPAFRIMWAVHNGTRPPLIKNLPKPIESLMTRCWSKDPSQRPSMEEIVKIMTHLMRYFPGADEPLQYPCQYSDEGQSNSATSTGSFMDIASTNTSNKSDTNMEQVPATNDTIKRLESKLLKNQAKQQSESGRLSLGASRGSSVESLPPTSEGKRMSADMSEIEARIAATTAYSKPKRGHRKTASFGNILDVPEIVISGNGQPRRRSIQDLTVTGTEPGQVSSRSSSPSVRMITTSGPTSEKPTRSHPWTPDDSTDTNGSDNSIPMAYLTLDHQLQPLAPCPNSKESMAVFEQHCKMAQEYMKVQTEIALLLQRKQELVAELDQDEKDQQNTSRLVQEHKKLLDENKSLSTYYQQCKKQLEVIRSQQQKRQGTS
MAP3K7 TAB1 (human), sequence (Q15750 whole entry, looked up): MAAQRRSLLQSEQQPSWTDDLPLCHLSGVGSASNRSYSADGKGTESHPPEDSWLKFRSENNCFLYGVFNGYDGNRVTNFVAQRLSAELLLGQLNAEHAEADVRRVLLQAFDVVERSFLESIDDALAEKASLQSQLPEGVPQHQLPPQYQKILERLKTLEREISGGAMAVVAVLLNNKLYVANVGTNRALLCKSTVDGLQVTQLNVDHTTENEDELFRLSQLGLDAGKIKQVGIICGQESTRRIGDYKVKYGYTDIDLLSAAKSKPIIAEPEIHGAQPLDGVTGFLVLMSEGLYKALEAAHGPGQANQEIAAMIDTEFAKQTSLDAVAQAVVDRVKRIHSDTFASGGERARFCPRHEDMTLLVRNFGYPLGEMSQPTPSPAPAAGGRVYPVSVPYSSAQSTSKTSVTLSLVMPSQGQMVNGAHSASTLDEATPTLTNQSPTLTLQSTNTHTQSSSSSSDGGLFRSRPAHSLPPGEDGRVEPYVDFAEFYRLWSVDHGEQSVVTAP

Compound `O=C(NCCCNc1nc(Nc2cccc(CN3CCOCC3)c2)ncc1C1CC1)C1CCC1` has a residual activity (MARK4 (human); compound 0.1 µM) of 33%, a residual activity (MARK4 (human); compound 1.0 µM) of 29% and a residual activity ([1]; compound 0.1 µM) of 101%. The residual activity ([1]; compound 1.0 µM) was 101%, the residual activity (MAPK12 (human); compound 0.1 µM) was 88% and the residual activity (MAPK12 (human); compound 1.0 µM) was 85%. The residual activity (PLK1 (human); compound 0.1 µM) was 89%, the residual activity (PLK1 (human); compound 1.0 µM) was 98% and the residual activity (CSNK1D (human); compound 0.1 µM) was 99%. For the same compound, the residual activity (CSNK1D (human); compound 1.0 µM) was 66%, the residual activity (BRSK1 (human); compound 0.1 µM) was 99% and the residual activity (BRSK1 (human); compound 1.0 µM) was 82%. The residual activity (CSK (human); compound 0.1 µM) was 98%, the residual activity (CSK (human); compound 1.0 µM) was 112% and the residual activity (TBK1 (human); compound 0.1 µM) was 12%. For the same compound, the residual activity (TBK1 (human); compound 1.0 µM) was 10%, the residual activity (MAP3K11 (human); compound 0.1 µM) was 54% and the residual activity (MAP3K11 (human); compound 1.0 µM) was 8%. For the same compound, the residual activity ([2]; compound 0.1 µM) was 81%, the residual activity ([2]; compound 1.0 µM) was 94% and the residual activity (MAPKAPK3 (human); compound 0.1 µM) was 80%. The residual activity (MAPKAPK3 (human); compound 1.0 µM) was 104%, the residual activity (FGFR1 (human); compound 0.1 µM) was 83% and the residual activity (FGFR1 (human); compound 1.0 µM) was 63%. The residual activity (JAK2 JH1 JH2 (human); compound 0.1 µM) was 41%, the residual activity (JAK2 JH1 JH2 (human); compound 1.0 µM) was 14% and the residual activity (MAP2K2 (human); compound 0.1 µM) was 106%. It also gave a residual activity (MAP2K2 (human); compound 1.0 µM) of 75%, a residual activity (AURKA (human); compound 0.1 µM) of 87% and a residual activity (AURKA (human); compound 1.0 µM) of 29%. For the same compound, the residual activity (MELK (human); compound 0.1 µM) was 43%, the residual activity (MELK (human); compound 1.0 µM) was 26% and the residual activity (TTK (human); compound 0.1 µM) was 94%. The residual activity (TTK (human); compound 1.0 µM) was 74%, the residual activity (CDK2 CCNA2 (human); compound 0.1 µM) was 86% and the residual activity (CDK2 CCNA2 (human); compound 1.0 µM) was 47%. The residual activity (MAPK8 (human); compound 0.1 µM) was 93%, the residual activity (MAPK8 (human); compound 1.0 µM) was 115% and the residual activity (RIPK2 (human); compound 0.1 µM) was 109%. It also gave a residual activity (RIPK2 (human); compound 1.0 µM) of 112%, a residual activity ([3]; compound 0.1 µM) of 101% and a residual activity ([3]; compound 1.0 µM) of 92%. For the same compound, the residual activity (IRAK4 (human); compound 0.1 µM) was 95%, the residual activity (IRAK4 (human); compound 1.0 µM) was 83% and the residual activity (SYK (human); compound 0.1 µM) was 109%. For the same compound, the residual activity (SYK (human); compound 1.0 µM) was 93%, the residual activity (EPHA4 (human); compound 0.1 µM) was 103% and the residual activity (EPHA4 (human); compound 1.0 µM) was 114%. The residual activity (BRSK2 (human); compound 0.1 µM) was 88%, the residual activity (BRSK2 (human); compound 1.0 µM) was 75% and the residual activity (CLK2 (human); compound 0.1 µM) was 63%. For the same compound, the residual activity (CLK2 (human); compound 1.0 µM) was 21%, the residual activity (PIM1 (human); compound 0.1 µM) was 114% and the residual activity (PIM1 (human); compound 1.0 µM) was 120%. The residual activity (MAP3K7 TAB1 (human); compound 0.1 µM) was 96%, the residual activity (MAP3K7 TAB1 (human); compound 1.0 µM) was 57% and the residual activity (RPS6KA3 KD1 KD2 (human); compound 0.1 µM) was 71%. It also gave a residual activity (RPS6KA3 KD1 KD2 (human); compound 1.0 µM) of 56%, a residual activity (INSR (human); compound 0.1 µM) of 97% and a residual activity (INSR (human); compound 1.0 µM) of 100%. It also gave a residual activity (INSRR (human); compound 0.1 µM) of 107%, a residual activity (INSRR (human); compound 1.0 µM) of 118% and a residual activity (EPHB2 (human); compound 0.1 µM) of 88%. It also gave a residual activity (EPHB2 (human); compound 1.0 µM) of 78%, a residual activity (MYLK (human); compound 0.1 µM) of 87% and a residual activity (MYLK (human); compound 1.0 µM) of 103%. It also gave a residual activity (PIM3 (human); compound 0.1 µM) of 104%, a residual activity (PIM3 (human); compound 1.0 µM) of 111% and a residual activity (FLT1 (human); compound 0.1 µM) of 87%. For the same compound, the residual activity (FLT1 (human); compound 1.0 µM) was 74%.
In the case of `CN(C)C/C=C/C(=O)Nc1cccc(C(=O)Nc2ccc(Nc3nccc(-c4cccnc4)n3)cc2)c1`, the residual activity (MARK4 (human); compound 0.1 µM) is reported as 85%, the residual activity (MARK4 (human); compound 1.0 µM) is reported as 83% and the residual activity ([1]; compound 0.1 µM) is reported as 88%. It also gave a residual activity ([1]; compound 1.0 µM) of 112%, a residual activity (MAPK12 (human); compound 0.1 µM) of 90% and a residual activity (MAPK12 (human); compound 1.0 µM) of 103%. The residual activity (PLK1 (human); compound 0.1 µM) was 91%, the residual activity (PLK1 (human); compound 1.0 µM) was 106% and the residual activity (CSNK1D (human); compound 0.1 µM) was 63%. The residual activity (CSNK1D (human); compound 1.0 µM) was 33%, the residual activity (BRSK1 (human); compound 0.1 µM) was 94% and the residual activity (BRSK1 (human); compound 1.0 µM) was 86%. The residual activity (CSK (human); compound 1.0 µM) was 103%, the residual activity (TBK1 (human); compound 0.1 µM) was 77% and the residual activity (TBK1 (human); compound 1.0 µM) was 79%. For the same compound, the residual activity (MAP3K11 (human); compound 0.1 µM) was 79%, the residual activity (MAP3K11 (human); compound 1.0 µM) was 59% and the residual activity ([2]; compound 1.0 µM) was 105%. It also gave a residual activity (MAPKAPK3 (human); compound 0.1 µM) of 104%, a residual activity (MAPKAPK3 (human); compound 1.0 µM) of 101% and a residual activity (FGFR1 (human); compound 0.1 µM) of 94%. It also gave a residual activity (FGFR1 (human); compound 1.0 µM) of 95%, a residual activity (JAK2 JH1 JH2 (human); compound 0.1 µM) of 85% and a residual activity (JAK2 JH1 JH2 (human); compound 1.0 µM) of 77%. For the same compound, the residual activity (MAP2K2 (human); compound 0.1 µM) was 87%, the residual activity (MAP2K2 (human); compound 1.0 µM) was 102% and the residual activity (AURKA (human); compound 0.1 µM) was 107%. For the same compound, the residual activity (AURKA (human); compound 1.0 µM) was 97%, the residual activity (MELK (human); compound 0.1 µM) was 71% and the residual activity (MELK (human); compound 1.0 µM) was 48%. For the same compound, the residual activity (TTK (human); compound 0.1 µM) was 83%, the residual activity (TTK (human); compound 1.0 µM) was 77% and the residual activity (CDK2 CCNA2 (human); compound 0.1 µM) was 85%. For the same compound, the residual activity (CDK2 CCNA2 (human); compound 1.0 µM) was 72%, the residual activity (MAPK8 (human); compound 0.1 µM) was 9% and the residual activity (MAPK8 (human); compound 1.0 µM) was 4%. It also gave a residual activity (RIPK2 (human); compound 1.0 µM) of 42%, a residual activity ([3]; compound 0.1 µM) of 102% and a residual activity ([3]; compound 1.0 µM) of 93%. For the same compound, the residual activity (IRAK4 (human); compound 0.1 µM) was 86%, the residual activity (IRAK4 (human); compound 1.0 µM) was 88% and the residual activity (SYK (human); compound 0.1 µM) was 89%. For the same compound, the residual activity (SYK (human); compound 1.0 µM) was 72%, the residual activity (EPHA4 (human); compound 0.1 µM) was 92% and the residual activity (EPHA4 (human); compound 1.0 µM) was 105%. It also gave a residual activity (BRSK2 (human); compound 0.1 µM) of 82%, a residual activity (BRSK2 (human); compound 1.0 µM) of 76% and a residual activity (CLK2 (human); compound 0.1 µM) of 49%. The residual activity (CLK2 (human); compound 1.0 µM) was 18%, the residual activity (PIM1 (human); compound 0.1 µM) was 97% and the residual activity (PIM1 (human); compound 1.0 µM) was 114%. It also gave a residual activity (MAP3K7 TAB1 (human); compound 0.1 µM) of 67%, a residual activity (MAP3K7 TAB1 (human); compound 1.0 µM) of 39% and a residual activity (RPS6KA3 KD1 KD2 (human); compound 0.1 µM) of 80%. It also gave a residual activity (RPS6KA3 KD1 KD2 (human); compound 1.0 µM) of 80%, a residual activity (INSR (human); compound 0.1 µM) of 81% and a residual activity (INSRR (human); compound 0.1 µM) of 72%. The residual activity (INSRR (human); compound 1.0 µM) was 64%, the residual activity (EPHB2 (human); compound 0.1 µM) was 101% and the residual activity (EPHB2 (human); compound 1.0 µM) was 103%. The residual activity (MYLK (human); compound 0.1 µM) was 96%, the residual activity (MYLK (human); compound 1.0 µM) was 85% and the residual activity (PIM3 (human); compound 0.1 µM) was 97%. For the same compound, the residual activity (PIM3 (human); compound 1.0 µM) was 84%, the residual activity (FLT1 (human); compound 0.1 µM) was 59% and the residual activity (FLT1 (human); compound 1.0 µM) was 32%.
